Measurements: patent US20170232083A1, “METHODS OF DIAGNOSIS AND TREATMENT OF CELIAC DISEASE IN CHILDREN” (priority 2014, published 2017)

Tested on: PBMC (polyclonal gluten-specific T cells) of paediatric and adult CD patients
Test: IFN-γ ELISpot of PBMC after 3 day oral wheat challenge (SFU, % of maximal peptide response, dominance scores, EC50; Examples 5-6)
Assay type: cell-based, human
Conditions: for Cross-reactive T cell response: following wheat challenge; for IFN-γ ELISpot response: after oral wheat challenge
[1] = patient A, 11-17 yrs, cut-off 10 SFU
[2] = patient E, H, 11-17 yrs, cut-off 10 SFU
[3] = patient F, 11-17 yrs, cut-off 10 SFU
[4] = patient G, 11-17 yrs, cut-off 10 SFU
[5] = patient H (HLA-DQ2.5 homozygote), 3-5yrs, cut-off 10 SFU
[6] = patient H, 11-17 yrs, cut-off 10 SFU
[7] = patient ID not given, 11-17 yrs, cut-off 10 SFU
[8] = patient ID not given, max peptide 95 SFU
[9] = patient N, 3-5yrs, cut-off 10 SFU
[10] = patient P, 11-17 yrs, cut-off 21.6 SFU
[11] = patient Q, 11-17 yrs, cut-off 10 SFU
[12] = patient U, H, 11-17 yrs, cut-off 10 SFU
[13] = patient V, 6-10 yrs, cut-off 10 SFU
[14] = patient Y, 6-10 yrs, cut-off 10 SFU
[15] = patient eleven, 6-10 yrs, cut-off 10 SFU
[16] = patient five, max peptide 48 SFU
[17] = patient four, 3-5yrs, cut-off 10 SFU
[18] = patient four, max peptide 44 SFU
[19] = patient seven, 6-10 yrs, cut-off 10.5 SFU
[20] = patient ten, 3-5yrs, cut-off 10 SFU
[21] = patient three, 6-10 yrs, cut-off 10.5 SFU
[22] = patient twelve, 11-17 yrs, cut-off 10 SFU
[23] = patient two, 3-5yrs, cut-off 10 SFU

LPFPQPEQPFVVV
Cross-reactive T cell response (subject A, 11-17yrs): 1 SFU | Significant response as a percentage of maximal peptide SFU (subject D, 11-17yrs): ′′′ (41-70% = ′′′) | Cross-reactive T cell response (subject D, 11-17yrs): 20 SFU | Significant response as a percentage of maximal peptide SFU (subject E, 11-17yrs): (6-10% - ^) | Cross-reactive T cell response (subject E, 11-17yrs): 16 SFU | Significant response as a percentage of maximal peptide SFU (subject F, 11-17yrs): (6-10% - ^) | Cross-reactive T cell response (subject F, 11-17yrs): 15 SFU | Cross-reactive T cell response (subject G, 11-17yrs): 3 SFU | Cross-reactive T cell response (subject H): 3 SFU | Cross-reactive T cell response (subject I (3-5yrs/6-10yrs part)): 7 SFU | Significant response as a percentage of maximal peptide SFU (subject J): ′ (11-20% = ′) | Cross-reactive T cell response (subject J (3-5yrs/6-10yrs part)): 29 SFU | Significant response as a percentage of maximal peptide SFU (subject K): ′′ (21-40% = ′′) | Cross-reactive T cell response (subject K (3-5yrs/6-10yrs part)): 18 SFU | Cross-reactive T cell response (subject P, 11-17yrs): 20 SFU | Significant response as a percentage of maximal peptide SFU (subject Q, 11-17yrs): ′′ (21-40% = ′′) | Cross-reactive T cell response (subject Q, 11-17yrs): 31 SFU | Significant response as a percentage of maximal peptide SFU (subject T, 11-17yrs): ′′′ (41-70% = ′′′) | Cross-reactive T cell response (subject T, 11-17yrs): 42 SFU | Cross-reactive T cell response (subject U, 11-17yrs): 8 SFU | Significant response as a percentage of maximal peptide SFU (subject V): ′′ (21-40% = ′′) | Cross-reactive T cell response (subject V (3-5yrs/6-10yrs part)): 13 SFU | Cross-reactive T cell response (subject W (3-5yrs/6-10yrs part)): 9 SFU | Cross-reactive T cell response (subject Y (3-5yrs/6-10yrs part)): 7 SFU | Significant response as a percentage of maximal peptide SFU (subject five): + (>70% = +) | Cross-reactive T cell response (subject five (3-5yrs/6-10yrs part)): 34 SFU | Cross-reactive T cell response (subject nine, 11-17yrs): 1 SFU | Cross-reactive T cell response (subject seven (3-5yrs/6-10yrs part)): 3 SFU | Cross-reactive T cell response (subject six (3-5yrs/6-10yrs part)): 8 SFU | Cross-reactive T cell response (subject ten (3-5yrs/6-10yrs part)): 8 SFU | Significant response as a percentage of maximal peptide SFU (subject two): ′′ (21-40% = ′′) | Cross-reactive T cell response (subject two (3-5yrs/6-10yrs part)): 18 SFU

QPFPQPQQPFSQQ
IFN-γ ELISpot response [1]: 9 SFU | IFN-γ ELISpot response [2]: 16 SFU | Significant response as percentage of maximal peptide SFU (patient E, max peptide 224 SFU): (6-10% = ^) | IFN-γ ELISpot response [3]: 12 SFU | Significant response as percentage of maximal peptide SFU (patient F, max peptide 178 SFU): (6-10% = ^) | IFN-γ ELISpot response [4]: 1 SFU | IFN-γ ELISpot response [5]: 13 SFU | IFN-γ ELISpot response [6]: 2 SFU | IFN-γ ELISpot response [7]: 30 SFU | Significant response as percentage of maximal peptide SFU [8]: ′′ (21-40% = ′′) | Significant response as percentage of maximal peptide SFU (patient II, max peptide 15 SFU): + (>70% = +) | Significant response as percentage of maximal peptide SFU (patient J, max peptide 196 SFU): (6-10% = ^) | Significant response as percentage of maximal peptide SFU (patient K, max peptide 53 SFU): ′′ (21-40% = ′′) | Significant response as percentage of maximal peptide SFU (patient M, max peptide 48 SFU): ′′ (21-40% = ′′) | IFN-γ ELISpot response [9]: 3 SFU | IFN-γ ELISpot response [10]: 10 SFU | IFN-γ ELISpot response [11]: 28 SFU | Significant response as percentage of maximal peptide SFU (patient Q, max peptide 97 SFU): ′′ (21-40% = ′′) | IFN-γ ELISpot response [12]: 22 SFU | Significant response as percentage of maximal peptide SFU (patient U, max peptide 81 SFU): ′′ (21-40% = ′′) | IFN-γ ELISpot response [13]: 5 SFU | IFN-γ ELISpot response [14]: 6 SFU | IFN-γ ELISpot response [15]: 1 SFU | Significant response as percentage of maximal peptide SFU [16]: ′′ (21-40% = ′′) | IFN-γ ELISpot response [17]: 12 SFU | Significant response as percentage of maximal peptide SFU [18]: ′′ (21-40% = ′′) | IFN-γ ELISpot response [19]: 6 SFU | IFN-γ ELISpot response [20]: 3 SFU | IFN-γ ELISpot response [21]: 13 SFU | IFN-γ ELISpot response [22]: 9 SFU | IFN-γ ELISpot response [23]: 9 SFU

LPYPQPQLPYPQP
IFN-γ ELISpot response [1]: 3 SFU | IFN-γ ELISpot response [2]: 61 SFU | Significant response as percentage of maximal peptide SFU (patient E, max peptide 224 SFU): ′′ (21-40% = ′′) | IFN-γ ELISpot response [3]: 120 SFU | Significant response as percentage of maximal peptide SFU (patient F, max peptide 178 SFU): ′′′ (41-70% = ′′′) | IFN-γ ELISpot response [4]: 2 SFU | IFN-γ ELISpot response [5]: 13 SFU | IFN-γ ELISpot response [6]: 13 SFU | Significant response as percentage of maximal peptide SFU (patient H, max peptide 17 SFU): + (>70% = +) | IFN-γ ELISpot response [7]: 49 SFU | Significant response as percentage of maximal peptide SFU [8]: ′′′ (41-70% = ′′′) | Significant response as percentage of maximal peptide SFU (patient II, max peptide 15 SFU): + (>70% = +) | Significant response as percentage of maximal peptide SFU (patient J, max peptide 196 SFU): ′′ (21-40% = ′′) | Significant response as percentage of maximal peptide SFU (patient K, max peptide 53 SFU): ′′ (21-40% = ′′) | Significant response as percentage of maximal peptide SFU (patient M, max peptide 48 SFU): ′′ (21-40% = ′′) | IFN-γ ELISpot response [9]: 3 SFU | IFN-γ ELISpot response [10]: 17 SFU | IFN-γ ELISpot response [11]: 53 SFU | Significant response as percentage of maximal peptide SFU (patient Q, max peptide 97 SFU): ′′′ (41-70% = ′′′) | IFN-γ ELISpot response [12]: 25 SFU | Significant response as percentage of maximal peptide SFU (patient U, max peptide 81 SFU): ′′ (21-40% = ′′) | IFN-γ ELISpot response [13]: 18 SFU | Significant response as percentage of maximal peptide SFU (patient V, max peptide 35 SFU): ′′′ (41-70% = ′′′) | IFN-γ ELISpot response [14]: 16 SFU | Significant response as percentage of maximal peptide SFU (patient Y, max peptide 16 SFU): + (>70% = +) | IFN-γ ELISpot response [15]: 25 SFU | Significant response as percentage of maximal peptide SFU (patient eleven, max peptide 57 SFU): ′′′ (41-70% = ′′′) | Significant response as percentage of maximal peptide SFU [16]: ′′ (21-40% = ′′) | IFN-γ ELISpot response [17]: 22 SFU | Significant response as percentage of maximal peptide SFU [18]: ′′′ (41-70% = ′′′) | IFN-γ ELISpot response [19]: 8 SFU | IFN-γ ELISpot response [20]: 7 SFU | IFN-γ ELISpot response [21]: 75 SFU | IFN-γ ELISpot response [22]: 5 SFU | IFN-γ ELISpot response [23]: 14 SFU | Significant response as percentage of maximal peptide SFU (patient two, max peptide 60 SFU): ′′ (21-40% = ′′)
